Target: KRas (Homo sapiens, UniProt P01116, G12C)
Experiment: KRas degradation in NCI-H2030 cells by Western blot, normalized to GAPDH (data of Table 14)
Assay type: cell-based
Parameters: host or cells: NCI-H2030
Details: for Percent Degradation at Indicated Concentration (μM): H2030; for Dmax: NCI-H2030
Summary of the method: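 After a day without serum, the G12C-homozygous cells received each compound at 0.3, 1 and 3 μM, with VHL-based degraders left for 24 h and other compounds for 72 h. DC50 is the concentration giving half-maximal degradation and DMax the maximal degradation, both taken from KRas levels normalized to GAPDH.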

Row | SMILES | Percent Degradation at Indicated Concentration (μM) (0.3 μM) | Percent Degradation at Indicated Concentration (μM) (1 μM) | Percent Degradation at Indicated Concentration (μM) (3 μM) | Dmax | Percent Degradation at Indicated Concentration (μM): 0.3 (H2030 cells, 0.3 μM) | Percent Degradation at Indicated Concentration (μM): 1 (H2030 cells, 1 μM) | Percent Degradation at Indicated Concentration (μM): 3 (H2030 cells, 3 μM) | Dmax (H2030 cells)
1 | Cc1ncsc1-c1ccc([C@H](C)NC(=O)[C@@H]2C[C@@H](O)CN2C(=O)[C@@H](NC(=O)COCCOCCOCCOCC/C=C/C(=O)N2CCN(c3ncnc4c(F)c(-c5cc(O)cc6ccccc56)c(Cl)cc34)CC2)C(C)(C)C)cc1 [compound 375, (2S,4R)-1-((2S,E)-2-(tert-butyl)-20-(4-(6-chloro-8-fluoro-7-(3-hydroxynaphthalen-1-yl)quinazolin-4-yl)piperazin-1-yl)-4,20-dioxo-6,9,12,15-tetraoxa-3-azaicos-18-enoyl)-4-hydroxy-N-((S)-1-(4-(4-methylthiazol-5-yl)phenyl)ethyl)pyrrolidine-2-carboxamide] | C (Percent Degradation: C ≤ 35) | C (Percent Degradation: C ≤ 35) | C (Percent Degradation: C ≤ 35) | ≤ 35% |  |  |  | 
2 | C=CC(=O)N1CCN(c2nc(NCCC(=O)N(C)CCOCCOCCOCCOCCOc3ccc4c(c3)CN(C3CCC(=O)NC3=O)C4=O)nc3c(F)c(-c4c(O)cccc4F)c(Cl)cc23)CC1 [compound 95, 3-(((S)-4-(4-acryloylpiperazin-1-yl)-6-chloro-8-fluoro-7-(2-fluoro-6-hydroxyphenyl)quinazolin-2-yl)amino)-N-(14-((2-(2,6-dioxopiperidin-3-yl)-1-oxoisoindolin-5-yl)oxy)-3,6,9,12-tetraoxatetradecyl)-N-methylpropanamide] | C (Percent Degradation: C ≤ 35) | C (Percent Degradation: C ≤ 35) | C (Percent Degradation: C ≤ 35) | ≤ 35% |  |  |  | 
3 | Cc1ncsc1-c1ccc([C@H](C)NC(=O)[C@@H]2C[C@@H](O)CN2C(=O)[C@@H](NC(=O)COCCOCCOCCOCCN(C)C(=O)CCNc2nc(N3CCN(C(N)=O)CC3)c3cc(Cl)c(-c4cc(O)cc5ccccc45)c(F)c3n2)C(C)(C)C)cc1 [compound 184, 4-(6-chloro-8-fluoro-2-(((S)-20-((2S,4R)-4-hydroxy-2-(((S)-1-(4-(4-methylthiazol-5-yl)phenyl)ethyl)carbamoyl)pyrrolidine-1-carbonyl)-4,21,21-trimethyl-3,18-dioxo-7,10,13,16-tetraoxa-4,19-diazadocosyl)amino)-7-(3-hydroxynaphthalen-1-yl)quinazolin-4-yl)piperazine-1-carboxamide] | C (Percent Degradation: C ≤ 35) | C (Percent Degradation: C ≤ 35) | C (Percent Degradation: C ≤ 35) | ≤ 35% |  |  |  | 
4 | C=CC(=O)N1CCN(c2nc(NCCC(=O)N(C)CCOCCOCCOCCOCCOCC(=O)N[C@H](C(=O)N3C[C@H](O)C[C@H]3C(=O)N[C@@H](C)c3ccc(-c4scnc4C)cc3)C(C)(C)C)nc3c(F)c(-c4cc(O)cc5ccccc45)c(Cl)cc23)CC1 [compound 197, (2S,4R)-1-((2S)-24-((4-(4-acryloylpiperazin-1-yl)-6-chloro-8-fluoro-7-(3-hydroxynaphthalen-1-yl)quinazolin-2-yl)amino)-2-(tert-butyl)-21-methyl-4,22-dioxo-6,9,12,15,18-pentaoxa-3,21-diazatetracosanoyl)-4-hydroxy-N-((S)-1-(4-(4-methylthiazol-5-yl)phenyl)ethyl)pyrrolidine-2-carboxamide] |  |  |  |  | C (C ≤ 35) | C (C ≤ 35) | C (C ≤ 35) | ≤ 35%
5 | CN(C)C(=O)CCNc1nc(N2CCN(C(=O)/C=C/CCOc3ccc4c(c3)C(=O)N(C3CCC(=O)NC3=O)C4=O)CC2)c2cc(Cl)c(-c3cc(O)cc4ccccc34)c(F)c2n1 (centres unmarked) [compound 468] | C (Percent Degradation: C ≤ 35) | C (Percent Degradation: C ≤ 35) | C (Percent Degradation: C ≤ 35) | ≤ 35% |  |  |  | 
6 | C=CC(=O)N1CCN(c2nc(NCCC(=O)N(C)CCNc3cccc4c3C(=O)N(C3CCC(=O)NC3=O)C4=O)nc3c(F)c(-c4c(O)cccc4F)c(Cl)cc23)CC1 [compound 107, 3-(((S)-4-(4-acryloylpiperazin-1-yl)-6-chloro-8-fluoro-7-(2-fluoro-6-hydroxyphenyl)quinazolin-2-yl)amino)-N-(2-((2-(2,6-dioxopiperidin-3-yl)-1,3-dioxoisoindolin-4-yl)amino)ethyl)-N-methylpropanamide] |  |  | C (Percent Degradation: C ≤ 35) |  |  |  |  | 
7 | C=CC(=O)N1CCN(c2nc(NCCC(=O)N(C)CCOCCNc3cccc4c3C(=O)N(C3CCC(=O)NC3=O)C4=O)nc3c(F)c(-c4cc(O)cc5ccccc45)c(Cl)cc23)CC1 (centres unmarked) [compound 56, 3-((4-(4-acryloylpiperazin-1-yl)-6-chloro-8-fluoro-7-(3-hydroxynaphthalen-1-yl)quinazolin-2-yl)amino)-N-(2-(2-((2-(2,6-dioxopiperidin-3-yl)-1,3-dioxoisoindolin-4-yl)amino)ethoxy)ethyl)-N-methylpropanamide] |  |  |  |  | C (C ≤ 35) | C (C ≤ 35) | C (C ≤ 35) | ≤ 35%
8 | CCC(=O)N1CCN(c2nc(NCCC(=O)N(C)CCOCCOc3cc(-c4scnc4C)ccc3CNC(=O)[C@@H]3C[C@@H](O)CN3C(=O)[C@H](c3cc(C)no3)C(C)C)nc3c(F)c(-c4cc(O)cc5ccccc45)c(Cl)cc23)CC1 [compound 331, (2S,4R)-N-(2-(2-(2-(3-((6-chloro-8-fluoro-7-(3-hydroxynaphthalen-1-yl)-4-(4-propionylpiperazin-1-yl)quinazolin-2-yl)amino)-N-methylpropanamido)ethoxy)ethoxy)-4-(4-methylthiazol-5-yl)benzyl)-4-hydroxy-1-((S)-3-methyl-2-(3-methylisoxazol-5-yl)butanoyl)pyrrolidine-2-carboxamide] |  |  |  |  | C (C ≤ 35) | C (C ≤ 35) | C (C ≤ 35) | ≤ 35%
9 | CCC(=O)N1CCN(c2nc(NCCC(=O)N(C)CCOCCOCCOCCOCCOc3cc(-c4scnc4C)ccc3CNC(=O)[C@@H]3C[C@@H](O)CN3C(=O)C(c3cc(C)no3)C(C)C)nc3c(F)c(-c4cc(O)cc5ccccc45)c(Cl)cc23)CC1 (stereo partly drawn) [compound 336, (2S,4R)-N-(2-((18-((6-chloro-8-fluoro-7-(3-hydroxynaphthalen-1-yl)-4-(4-propionylpiperazin-1-yl)quinazolin-2-yl)amino)-15-methyl-16-oxo-3,6,9,12-tetraoxa-15-azaoctadecyl)oxy)-4-(4-methylthiazol-5-yl)benzyl)-4-hydroxy-1-(3-methyl-2-(3-methylisoxazol-5-yl)butanoyl)pyrrolidine-2-carboxamide] |  |  |  |  | C (C ≤ 35) | C (C ≤ 35) | C (C ≤ 35) | ≤ 35%
10 | CN(C)C(=O)CCNc1nc(N2CCN(C(=O)/C=C/CCOCCOc3ccc4c(c3)C(=O)N(C3CCC(=O)NC3=O)C4=O)CC2)c2cc(Cl)c(-c3cc(O)cc4ccccc34)c(F)c2n1 (centres unmarked) [compound 172, (E)-3-((6-chloro-4-(4-(5-(2-((2-(2,6-dioxopiperidin-3-yl)-1,3-dioxoisoindolin-5-yl)oxy)ethoxy)pent-2-enoyl)piperazin-1-yl)-8-fluoro-7-(3-hydroxynaphthalen-1-yl)quinazolin-2-yl)amino)-N,N-dimethylpropanamide] | C (Percent Degradation: C ≤ 35) | C (Percent Degradation: C ≤ 35) | C (Percent Degradation: C ≤ 35) | ≤ 35% |  |  |  | 
11 | C=CC(=O)N1CCN(c2nc(NCCC(=O)N(C)CCOCCOCCOCCOCC(=O)N[C@H](C(=O)N3C[C@H](O)C[C@H]3C(=O)N[C@@H](C)c3ccc(-c4scnc4C)cc3)C(C)(C)C)nc3c(F)c(-c4cc(O)cc5ccccc45)c(Cl)cc23)CC1 [compound 194, (2S,4R)-1-((2S)-21-((4-(4-acryloylpiperazin-1-yl)-6-chloro-8-fluoro-7-(3-hydroxynaphthalen-1-yl)quinazolin-2-yl)amino)-2-(tert-butyl)-18-methyl-4,19-dioxo-6,9,12,15-tetraoxa-3,18-diazahenicosanoyl)-4-hydroxy-N-((S)-1-(4-(4-methylthiazol-5-yl)phenyl)ethyl)pyrrolidine-2-carboxamide] |  |  |  |  | C (C ≤ 35) | C (C ≤ 35) | C (C ≤ 35) | ≤ 35%
